Laboratory results taken from US20080279961A1, “TELOMERE TARGETING AGENTS AS STEM CELLS DIRECTED TREATMENTS” (priority 2007, published 2008).
“Also recorded” adds a separate entry of the source.

How the values were obtained:
R1 prostate cancer cells = test: side population analysis; format: cell-based
Text: In one embodiment of the invention, cancer stem cells have shorter telomeres than other cancer cells (FIG. 7). Side population analysis was done to distinguish between cancer stem cells in R1 prostate cancer cells and […]. A primitive CD34^low/neg stem cell population has been defined in normal bone marrow, which has the unique capacity to efflux lipophilic dyes such as Hoechst 33342 as a result of high levels of expression of P-glycoprotein (MDRa/ABCB1) transporter and BCRP (breast cancer resistance protein, ABCG2). […] R1 is the parental prostate cancer cell line with a SP of 0.36% of cells of the total population (100%). […] Subclones of the R1 chemosensitive prostate cancer cell line that are resistant to the clinically used cytotoxic agents mitoxantrone and docetaxel, show a much expanded SP of 45% and 83% of cells respectively. In fact docetaxel resistant R1 cells are almost all stem cell like cells.

[1] = tolerability in xenograft studies (body weight, deaths, MTD)
Experimental: For the first in vivo experiment, tumor fragments (5×5 mm) from untreated donor animals were implanted subcutaneously into both flanks of recipient mice. Treatment was initiated 6 days after transplantation (=day 0, median tumor volume of ˜70 mm^3). Animals were randomized into groups following Lindner's randomization tables and treated by oral gavage with 5 mg/kg/d RHPS4 or vehicle (phosphate buffered saline) respectively (n=5-8 animals per group). […] Drug administration was repeated twice weekly for 8 times (Q3dx8) after randomization. Tumor growth was followed twice weekly by serial caliper measurement, body weights were recorded, and tumor volumes were calculated using the standard formula (length×width^2)/2, where length is the largest dimension and width the smallest dimension perpendicular to the length (Alley et al., 2004; Geran et al., 1972). The median relative tumor volume was plotted against time. Relative tumor volumes were calculated for each single tumor by dividing the tumor volume on day X by that on day 0 (time of randomization). Growth curves were analyzed in terms of tumor inhibition (treated/control, T/C, calculated as median tumor weight of treated divided by median tumor weight of control animals times 100). Statistical data analysis was done using non-parametrical Wilcoxon Mann-Whitney statistics. Median relative tumor volumes of each treatment group were compared with those of the vehicle control groups. P values less than 0.05 were considered statistically significant. SPSS 2000, SYSTAT version 10 software was used.
To conduct combination treatment with Paclitaxel, after 4 serial propagations of RHPS4 treated tumor tissue in nude mice (FIG. 1), RHPS4 was combined with Paclitaxel. Single agent Paclitaxel was given at 20 mg/kg i.v. on days 1 and 15. In combination with RHPS4 (given at 5 mg/kg p.o. twice weekly), only a single dose of Paclitaxel (20 mg/kg i.v.) was administered on day 1. Tumor growth parameters and body weight were assessed as described above.

UXF1138L xenografts [2] = test: tumor growth inhibition of subcutaneous xenografts; format: in vivo, nude mice
UXF1138L xenografts [3] = conditions: mouse, in vivo; cited from earlier work

Structure (SMILES): COc1ccc2c3c([nH]c2c1)[C@H](CC(C)C)N1C(=O)[C@H](CCC(=O)OC(C)(C)C)NC(=O)[C@@H]1C3 [Ko143]
- effect on side population (SP) (R1 prostate cancer cells): abolishes the SP

Structure (SMILES): CC(=O)O[C@H]1C(=O)[C@@]2(C)[C@H]([C@H](OC(=O)c3ccccc3)[C@]3(O)C[C@H](OC(=O)[C@H](O)[C@@H](NC(=O)c4ccccc4)c4ccccc4)C(C)=C1C3(C)C)[C@]1(OC(C)=O)CO[C@@H]1C[C@@H]2O [Paclitaxel, reference compound]
- Deaths [n/n], drug related death per mice per group ([1]; Passage #4): 0/6
- BWC, maximal median body weight change ([1]; mouse, in vivo): +6%
- opt. Test/Control [%] (UXF1138L xenografts [2]; Passage #4, RHPS4 5 mg/kg p.o. twice weekly, Paclitaxel 20 mg/kg i.v.): 8%
- CR, complete remission (UXF1138L xenografts [2]; Passage #4, tumors per group): 2/12
- P, progression (UXF1138L xenografts [2]; Passage #4, tumors per group): 3/12
- PR, partial regression (UXF1138L xenografts [2]; Passage #4, tumors per group): 7/12
- antitumor response in words (UXF1138L xenografts [2]; Passage #4 UXF1138L xenografts): has single agent activity; also recorded: transient remissions; also recorded: Minor remissions

Structure (SMILES): COc1cccc2c1C(=O)c1c(O)c3c(c(O)c1C2=O)C[C@@](O)(C(=O)CO)C[C@@H]3O[C@H]1C[C@H](N)[C@H](O)[C@H](C)O1 [doxorubicin]
- response of UXF1138L xenograft to standard chemotherapy (UXF1138L xenografts [3]): resistant

Structure (SMILES): O=C1c2c(O)ccc(O)c2C(=O)c2c(NCCNCCO)ccc(NCCNCCO)c21 [mitoxantrone]
- response of UXF1138L xenograft to standard chemotherapy (UXF1138L xenografts [3]): resistant
